From PMC8371902, “Phase 1 study of M2698, a p70S6K/AKT dual inhibitor, in patients with advanced cancer” (Journal of Hematology & Oncology, 2021)
Like-named read-outs stand apart in the source and are kept apart here.

System: patients with advanced metastatic cancer
Description: In this phase 1 study, dose escalation was followed by expansion cohorts of once-daily, oral M2698 in continuous 21-day cycles. Primary objectives were to determine the maximum tolerated dose (MTD), dose-limiting toxicities (DLTs), and recommended phase 2 dose (RP2D). Secondary objectives were to assess safety and tolerability, pharmacokinetics (PK, including food effect) and antitumor activity. Pharmacodynamic biomarker assessments were exploratory. Treatment was discontinued if there was disease progression, toxicity or consent withdrawal.
In Part 1, M2698 monotherapy was investigated in a dose escalation with a food effect cohort. In Part 2, M2698 was investigated as monotherapy (expansion cohort) to further characterize safety, tolerability and pharmacokinetics, and assess antitumor activity in PAM + patients without confounding markers (exploratory).
Dose escalation analysis included all patients who experienced a DLT and those who received ≥ 80% of planned M2698 doses in cycle 1 without experiencing a DLT. Safety analysis included all patients who received ≥ 1 dose of M2698. PK analysis included all patients who received ≥ 1 dose of M2698 and had measurable plasma concentrations. Dose proportionality was tested using the power model (linear regression approach on the log -transformed scale).

With `NC(=O)c1cccc2c(N[C@H](CN3CCC3)c3ccc(Cl)c(C(F)(F)F)c3)ncnc12` [M2698] the “M2698-related TEAE: Hyperhidrosis” value (30 mg n=3) was 0, the “M2698-related TEAE: Hypokalaemia” value (30 mg n=3) was 1 and the “M2698-related TEAE: Hypomagnesaemia” value (30 mg n=3) was 0. The “M2698-related TEAE: Insomnia” value (30 mg n=3) was 0, the “M2698-related TEAE: Investigations” value (30 mg n=3) was 0 and the “M2698-related TEAE: Lipase increased” value (30 mg n=3) was 0. The “M2698-related TEAE: Lymphopenia” value (30 mg n=3) was 0, the “M2698-related TEAE: Metabolism and nutrition disorders” value (30 mg n=3) was 1 and the “M2698-related TEAE: Mucosal inflammation” value (30 mg n=3) was 0. The “M2698-related TEAE: Nausea” value (30 mg n=3) was 0, the “M2698-related TEAE: Nervous system disorders” value (30 mg n=3) was 0 and the “M2698-related TEAE: Nightmare” value (30 mg n=3) was 0. For the same compound, the “M2698-related TEAE: Onychomadesis” value (30 mg n=3) was 0, the “M2698-related TEAE: Paranoia” value (30 mg n=3) was 0 and the “M2698-related TEAE: Photosensitivity reaction” value (30 mg n=3) was 0. For the same compound, the “M2698-related TEAE: Posterior reversible encephalopathy syndrome” value (30 mg n=3) was 0, the “M2698-related TEAE: Pruritus generalised” value (30 mg n=3) was 0 and the “M2698-related TEAE: Psychiatric disorders” value (30 mg n=3) was 0. The “M2698-related TEAE: Rash” value (30 mg n=3) was 0, the “M2698-related TEAE: Rash maculo-papular” value (30 mg n=3) was 1 and the “M2698-related TEAE: Skin and subcutaneous tissue disorders” value (30 mg n=3) was 1. The “M2698-related TEAE: Subjects with at least one event” value (30 mg n=3) was 2, the “M2698-related TEAE: Transaminases increased” value (30 mg n=3) was 0 and the “M2698-related TEAE: Tremor” value (30 mg n=3) was 0. The “M2698-related TEAE: Vision blurred” value (30 mg n=3) was 1, the “M2698-related TEAE: Vomiting” value (30 mg n=3) was 0 and the “M2698-related TEAE: White blood cell count decreased” value (30 mg n=3) was 0. The “M2698-related TEAE: Abnormal dreams” value (60 mg n=6) was 0, the “M2698-related TEAE: Affect lability” value (60 mg n=6) was 1 and the “M2698-related TEAE: Alanine aminotransferase increased” value (60 mg n=6) was 1. The “M2698-related TEAE: Amylase increased” value (60 mg n=6) was 1, the “M2698-related TEAE: Anaemia” value (60 mg n=6) was 0 and the “M2698-related TEAE: Angina pectoris” value (60 mg n=6) was 1. The “M2698-related TEAE: Anxiety” value (60 mg n=6) was 0, the “M2698-related TEAE: Aphasia” value (60 mg n=6) was 0 and the “M2698-related TEAE: Ataxia” value (60 mg n=6) was 0. The “M2698-related TEAE: Blood and lymphatic system disorders” value (60 mg n=6) was 0, the “M2698-related TEAE: Blood creatine phosphokinase increased” value (60 mg n=6) was 0 and the “M2698-related TEAE: Blood creatinine increased” value (60 mg n=6) was 0. For the same compound, the “M2698-related TEAE: Cardiac disorders” value (60 mg n=6) was 1, the “M2698-related TEAE: Cognitive disorder” value (60 mg n=6) was 0 and the “M2698-related TEAE: Constipation” value (60 mg n=6) was 0. The “M2698-related TEAE: Decreased appetite” value (60 mg n=6) was 0, the “M2698-related TEAE: Delusion” value (60 mg n=6) was 0 and the “M2698-related TEAE: Depression” value (60 mg n=6) was 0. The “M2698-related TEAE: Diarrhoea” value (60 mg n=6) was 0, the “M2698-related TEAE: Diarrhoea haemorrhagic” value (60 mg n=6) was 0 and the “M2698-related TEAE: Dizziness” value (60 mg n=6) was 0. For the same compound, the “M2698-related TEAE: Dry eye” value (60 mg n=6) was 0, the “M2698-related TEAE: Dry mouth” value (60 mg n=6) was 0 and the “M2698-related TEAE: Dysgeusia” value (60 mg n=6) was 0. The “M2698-related TEAE: Dyspepsia” value (60 mg n=6) was 0, the “M2698-related TEAE: Dysphagia” value (60 mg n=6) was 0 and the “M2698-related TEAE: Energy increased” value (60 mg n=6) was 0. The “M2698-related TEAE: Erythema” value (60 mg n=6) was 0, the “M2698-related TEAE: Euphoric mood” value (60 mg n=6) was 0 and the “M2698-related TEAE: Eye disorders” value (60 mg n=6) was 0. The “M2698-related TEAE: Fatigue” value (60 mg n=6) was 0, the “M2698-related TEAE: Gamma-glutamyltransferase increased” value (60 mg n=6) was 0 and the “M2698-related TEAE: Gastrointestinal disorders” value (60 mg n=6) was 0. For the same compound, the “M2698-related TEAE: Gastrooesophageal reflux disease” value (60 mg n=6) was 0, the “M2698-related TEAE: General disorders and administration site conditions” value (60 mg n=6) was 0 and the “M2698-related TEAE: Headache” value (60 mg n=6) was 0. The “M2698-related TEAE: Hyperhidrosis” value (60 mg n=6) was 0, the “M2698-related TEAE: Hypokalaemia” value (60 mg n=6) was 0 and the “M2698-related TEAE: Hypomagnesaemia” value (60 mg n=6) was 0. The “M2698-related TEAE: Insomnia” value (60 mg n=6) was 0, the “M2698-related TEAE: Investigations” value (60 mg n=6) was 1 and the “M2698-related TEAE: Lipase increased” value (60 mg n=6) was 1. For the same compound, the “M2698-related TEAE: Lymphopenia” value (60 mg n=6) was 0, the “M2698-related TEAE: Metabolism and nutrition disorders” value (60 mg n=6) was 0 and the “M2698-related TEAE: Mucosal inflammation” value (60 mg n=6) was 0. For the same compound, the “M2698-related TEAE: Nausea” value (60 mg n=6) was 0, the “M2698-related TEAE: Nervous system disorders” value (60 mg n=6) was 0 and the “M2698-related TEAE: Nightmare” value (60 mg n=6) was 0. The “M2698-related TEAE: Onychomadesis” value (60 mg n=6) was 1, the “M2698-related TEAE: Paranoia” value (60 mg n=6) was 0 and the “M2698-related TEAE: Photosensitivity reaction” value (60 mg n=6) was 0. The “M2698-related TEAE: Posterior reversible encephalopathy syndrome” value (60 mg n=6) was 0, the “M2698-related TEAE: Pruritus generalised” value (60 mg n=6) was 0 and the “M2698-related TEAE: Psychiatric disorders” value (60 mg n=6) was 1. For the same compound, the “M2698-related TEAE: Rash” value (60 mg n=6) was 0, the “M2698-related TEAE: Rash maculo-papular” value (60 mg n=6) was 0 and the “M2698-related TEAE: Skin and subcutaneous tissue disorders” value (60 mg n=6) was 1. For the same compound, the “M2698-related TEAE: Subjects with at least one event” value (60 mg n=6) was 2, the “M2698-related TEAE: Transaminases increased” value (60 mg n=6) was 0 and the “M2698-related TEAE: Tremor” value (60 mg n=6) was 0. For the same compound, the “M2698-related TEAE: Vision blurred” value (60 mg n=6) was 0, the “M2698-related TEAE: Vomiting” value (60 mg n=6) was 0 and the “M2698-related TEAE: White blood cell count decreased” value (60 mg n=6) was 0. For the same compound, the DLT observed (60 mg, n = 1, resolved following treatment interruption) was “grade 3 lipase increase”, the “M2698-related TEAE: Abnormal dreams” value (75 mg n=4) was 1 and the “M2698-related TEAE: Affect lability” value (75 mg n=4) was 0. For the same compound, the “M2698-related TEAE: Alanine aminotransferase increased” value (75 mg n=4) was 0, the “M2698-related TEAE: Amylase increased” value (75 mg n=4) was 0 and the “M2698-related TEAE: Anaemia” value (75 mg n=4) was 0. The “M2698-related TEAE: Angina pectoris” value (75 mg n=4) was 0, the “M2698-related TEAE: Anxiety” value (75 mg n=4) was 0 and the “M2698-related TEAE: Aphasia” value (75 mg n=4) was 0.
